In ChEMBL document CHEMBL5380835, “Discovery of Clinically Used Octenidine as NRAS Repressor That Effectively Inhibits NRAS-Mutant Melanoma” (J Med Chem, 2023):
Active and inactive are the calls of the source. The rule behind the calls is not given here.

Assays:
[1] = system: SK-MEL-2; experiment: Cytotoxicity against human SK-MEL-2 cells assessed as inhibition of cell viability treated for 48 hrs measured after 24 hrs; assay type: functional, cell-based
[2] = system: SK-MEL-2; experiment: Cytotoxicity against human SK-MEL-2 cells expressing Tet-on NRAS Q61R assessed as cell growth inhibition; assay type: functional, cell-based
[3] = system: SK-MEL-2; experiment: Downregulation of NRAS expression in human SK-MEL-2 cells xenografted in BALB/c nude mouse at 1 mg/kg/day, ip administered for 30 days by IHC analysis; assay type: functional, organism-based; details: time 30.0 day
[4] = Binding affinity to NRAS RNA G-quadruplex 5'-r(UGUGGGAGGGGCGGGUCUGGG)-3' (unknown origin) assessed as decrease in TO fluorescence at 0.25 uM by TO displacement assay
[5] = system: SK-MEL-2; experiment: Cytotoxicity against human SK-MEL-2 cells expressing NRAS mutant assessed as cell growth inhibition upto 50 uM measured for 12 to 96 hrs by MTT assay; assay type: functional, cell-based; details: time 12-96 hrs
[6] = system: SK-MEL-2; experiment: Induction of apoptosis in human SK-MEL-2 cells assessed as late apoptotic cells at 1.5 uM measured after 24 hrs by PI/FITC Annexin V staining based flow cytometry; assay type: functional, cell-based
[7] = Binding affinity to 5'-FAM-labeled to NRAS RNA G-quadruplex 5'-r(UGUGGGAGGGGCGGGUCUGGG)-3' (unknown origin) assessed as dissociation constant by fluorescence quenching assay
[8] = system: SK-MEL-2; experiment: Disruption of DHX36/NRAS RNA G-quadruplex 5'-r(UGUGGGAGGGGCGGGUCUGGG)-3' in human SK-MEL-2 cells at 1.5 uM incubated for 24 hrs by RNA Immunoprecipitation assay; assay type: cell-based
[9] = system: RNA; experiment: Binding affinity to total RNA (unknown origin) by TO displacement assay; assay type: nucleic-acid assay
[10] = Stabilization of NRAS RNA G-quadruplex 5'-r(UGUGGGAGGGGCGGGUCUGGG)-3' (unknown origin) at 10 uM
[11] = system: SK-MEL-2; experiment: Cytotoxicity against human SK-MEL-2 cells expressing Tet-on NRAS Q61R assessed as cell growth inhibition in presence of doxycycline; assay type: functional, cell-based
[12] = system: SK-MEL-2; experiment: Downregulation of phosphorylated mTOR in human SK-MEL-2 cells expressing NRAS mutant incubated for 48 hrs by Western blot analysis; assay type: functional, cell-based; details: dose <= 1.5 µM
[13] = system: SK-MEL-2; experiment: Cytotoxicity against human SK-MEL-2 cells assessed as inhibition of cell viability treated for 72 hrs measured after 24 hrs; assay type: functional, cell-based
[14] = system: SK-MEL-2; experiment: Downregulation of phosphorylated MEK in human SK-MEL-2 cells expressing NRAS mutant incubated for 48 hrs by Western blot analysis; assay type: functional, cell-based; details: dose <= 1.5 µM
[15] = system: DNA; experiment: Binding affinity to total DNA (unknown origin) by TO displacement assay; assay type: nucleic-acid assay
[16] = system: SK-MEL-2; experiment: Antitumor activity against human SK-MEL-2 cells xenografted in BALB/c nude mouse assessed as reduction in tumor weight at 1 mg/kg/day, ip administered for 30 days by electronic caliper method; assay type: functional, organism-based; details: time 30.0 day
[17] = system: SK-MEL-2; experiment: Antiproliferative activity against human SK-MEL-2 cells assessed as cell growth inhibition incubated for 12 hrs by EdU assay; assay type: functional, cell-based; details: SK-MEL-2, 12 h
[18] = system: SK-MEL-2; experiment: Antitumor activity against human SK-MEL-2 cells xenografted in BALB/c nude mouse assessed as T/C ratio at 1 mg/kg/day, ip administered for 30 days relative to control; assay type: functional; details: time 30 day
[19] = system: SK-MEL-2; experiment: Suppression of NRAS protein translation in human SK-MEL-2 cells upto 1.5 uM incubated for 48 hrs by Western blot analysis; assay type: functional, cell-based
[20] = system: SK-MEL-2; experiment: Downregulation of phosphorylated AKT in human SK-MEL-2 cells expressing NRAS mutant incubated for 48 hrs by Western blot analysis; assay type: functional, cell-based; details: dose <= 1.5 µM
[21] = system: SK-MEL-2; experiment: Antiproliferative activity against human SK-MEL-2 cells assessed as inhibition of colony formation at 1.5 uM measured after 10 days by crystal violet staining based assay relative to control; assay type: functional; details: SK-MEL-2, 240 h, time 10 day
[22] = system: RNA [UNDEFINED MUTATION]; experiment: Binding affinity to NRAS RNA mutant G-quadruplex 5'-r(UGUAAGAGAAGCGAGUCUGAG)-3' (unknown origin) by TO displacement assay; assay type: nucleic-acid assay
[23] = system: SK-MEL-2; experiment: Antitumor activity against human SK-MEL-2 cells xenografted in BALB/c nude mouse assessed as tumor growth inhibition at 1 mg/kg/day, ip administered for 30 days relative to control; assay type: functional; details: SK-MEL-2, 720 h, time 30 day, read-out: TGI
[24] = system: SK-MEL-2; experiment: Downregulation of phosphorylated ERK in human SK-MEL-2 cells expressing NRAS mutant incubated for 48 hrs by Western blot analysis; assay type: functional, cell-based; details: dose <= 1.5 µM
[25] = system: SK-MEL-2; experiment: Downregulation of KRAS protein level in human SK-MEL-2 cells upto 1.5 uM incubated for 48 hrs by Western blot analysis; assay type: functional, cell-based
[26] = Toxicity in BALB/c mouse xenografted with human SK-MEL-2 cells assessed as change in body weight at 1 mg/kg/day, ip administered for 30 days; assay type: organism-based; details: in vivo, 720 h, time 30 day
[27] = system: SK-MEL-2; experiment: Antitumor activity against human SK-MEL-2 cells xenografted in BALB/c nude mouse assessed as tumor growth inhibition at 1 mg/kg/day, ip by electronic caliper method; assay type: functional, organism-based; details: time 30.0 day, TDE = time-dependent effect
[28] = system: SK-MEL-2; experiment: Antiproliferative activity against human SK-MEL-2 cells assessed as cell growth inhibition incubated for 48 hrs by EdU assay; assay type: functional, cell-based; details: SK-MEL-2, 48 h
[29] = Toxicity in BALB/c mouse xenografted with human SK-MEL-2 cells assessed as change in viscera pattern at 1 mg/kg/day, ip administered for 30 days by HE staining based analysis; assay type: organism-based; details: in vivo, 720 h, time 30 day
[30] = system: SK-MEL-2; experiment: Induction of cell cycle arrest in human SK-MEL-2 cells assessed as accumulation at S phase at 1.5 uM measured after 24 hrs by PI staining based analysis; assay type: functional
[31] = system: SK-MEL-2; experiment: Cytotoxicity against human SK-MEL-2 cells expressing NRAS mutant assessed as cell growth inhibition incubated for 48 hrs by MTT assay; assay type: functional, cell-based; details: SK-MEL-2, 48 h
[32] = system: SK-MEL-2; experiment: Cytotoxicity against human SK-MEL-2 cells overexpressing Tet-on NRAS Q61R assessed as cell growth inhibition; assay type: functional, cell-based
[33] = system: SK-MEL-2; experiment: Cytotoxicity against human SK-MEL-2 cells overexpressing Tet-on NRAS Q61R assessed as cell growth inhibition in presence of doxycycline; assay type: functional, cell-based
[34] = system: SK-MEL-2; experiment: Induction of autophagy in human SK-MEL-2 cells assessed as […] at 1.5 uM measured upto 48 hrs by Western bot analysis; assay type: functional, cell-based
[35] = Binding affinity to 3'-FAM-labeled to NRAS RNA G-quadruplex 5'-r(UGUGGGAGGGGCGGGUCUGGG)-3' (unknown origin) assessed as dissociation constant by fluorescence quenching assay
[36] = system: SK-MEL-2; experiment: Downregulation of phosphorylated ERK in human SK-MEL-2 cells expressing NRAS mutant at 1.5 uM by Western blot analysis; assay type: functional, cell-based; details: time <= 48.0 hrs, TDE = time-dependent effect
[37] = system: HEK293; experiment: Binding affinity to NRAS RNA G-quadruplex 5'-r(UGUGGGAGGGGCGGGUCUGGG)-3' (unknown origin) transfected in HEK293 cells assessed as decrease in NRAS […] upto 1.5 uM incubated for 24 hrs by Dual luciferase reporter assay; assay type: functional, cell-based
[38] = system: SK-MEL-2; experiment: Cytotoxicity against human SK-MEL-2 cells upto 10 uM in presence of 3mA; assay type: functional, cell-based
[39] = Binding affinity to NRAS RNA G-quadruplex 5'-r(UGUGGGAGGGGCGGGUCUGGG)-3' (unknown origin) by TO displacement assay
[40] = system: SK-MEL-2; experiment: Cytotoxicity against human SK-MEL-2 cells assessed as cell growth inhibition incubated for 24 hrs by MTT assay; assay type: functional, cell-based; details: SK-MEL-2, 24 h
[41] = Disruption of DHX36/NRAS RNA G-quadruplex 5'-r(UGUGGGAGGGGCGGGUCUGGG)-3' (unknown origin) using RNA substrate incubated for 1 hr by ELISA method
[42] = system: SK-MEL-2; experiment: Antiproliferative activity against human SK-MEL-2 cells assessed as inhibition of cell survival upto 50 uM incubated for 24 to 96 hrs by MTT assay; assay type: functional, cell-based; details: time 24-96 hrs
[43] = system: SK-MEL-2; experiment: Downregulation of NRAS protein translation in human SK-MEL-2 cells incubated for 24 hrs by Western blot analysis; assay type: functional, cell-based; details: dose <= 1.5 µM
[44] = system: SK-MEL-2; experiment: Induction of cell cycle arrest in human SK-MEL-2 cells assessed as accumulation at G2/M phase at 1.5 uM measured after 48 hrs by PI staining based analysis; assay type: functional
[45] = system: SK-MEL-2; experiment: Downregulation of phosphorylated mTOR in human SK-MEL-2 cells expressing NRAS mutant at 1.5 uM by Western blot analysis; assay type: functional, cell-based; details: time <= 48.0 hrs, TDE = time-dependent effect
[46] = system: SK-MEL-2; experiment: Cytotoxicity against human SK-MEL-2 cells upto 10 uM in presence of CQ; assay type: functional, cell-based
[47] = system: SK-MEL-2; experiment: Cytotoxicity against human SK-MEL-2 cells assessed as inhibition of cell viability treated for 48 hrs measured after 48 hrs; assay type: functional, cell-based; details: SK-MEL-2, 48 h
[48] = system: SK-MEL-2; experiment: Antiproliferative activity against human SK-MEL-2 cells assessed as cell growth inhibition incubated for 24 hrs by EdU assay; assay type: functional, cell-based; details: SK-MEL-2, 24 h
[49] = system: SK-MEL-2; experiment: Cytotoxicity against human SK-MEL-2 cells assessed as inhibition of cell viability treated for 72 hrs measured after 72 hrs; assay type: functional, cell-based; details: SK-MEL-2, 72 h

**Q.** Which IC50 [1] does the source give for `CCCCCCCCN=c1ccn(CCCCCCCCCCn2ccc(=NCCCCCCCC)cc2)cc1.Cl.Cl` [OCTENIDINE HYDROCHLORIDE] here?
**A.** 2.11 µM

**Q.** What about the IC50 [2] of the same compound?
**A.** 6.3 µM

**Q.** What about the Activity [3] of the same compound?
**A.** Active

**Q.** And the Activity [4]?
**A.** Active

**Q.** What about the inhibition [5] of the same compound?
**A.** Active

**Q.** What about the Activity [6] of the same compound?
**A.** Active

**Q.** And the Kd [7]?
**A.** 0.49 µM

**Q.** And the Activity [8]?
**A.** Active

**Q.** What about the Activity [9] of the same compound?
**A.** Active

**Q.** And the Activity [10]?
**A.** inactive

**Q.** And the IC50 [11]?
**A.** 12.4 µM

**Q.** What about the Activity [12] of the same compound?
**A.** Dose-Dependent Effect

**Q.** What about the IC50 [13] of the same compound?
**A.** 0.48 µM

**Q.** And the Activity [14]?
**A.** Dose-Dependent Effect

**Q.** And the Activity [15]?
**A.** inactive

**Q.** What about the Activity [16] of the same compound?
**A.** Active

**Q.** And the IC50 [17]?
**A.** 2.05 µM

**Q.** What about the T/C [18] of the same compound?
**A.** 38.5%

**Q.** And the Activity [19]?
**A.** Active

**Q.** What about the Activity [20] of the same compound?
**A.** Dose-Dependent Effect

**Q.** And the inhibition at 1.5 µM [21]?
**A.** 100%

**Q.** And the Activity [22]?
**A.** inactive

**Q.** What about the inhibition in vivo at 1 mg/kg/day [23] of the same compound?
**A.** 52.4%

**Q.** What about the Activity [24] of the same compound?
**A.** Dose-Dependent Effect

**Q.** And the Activity [25]?
**A.** inactive

**Q.** What about the Activity [26] of the same compound?
**A.** Non-Toxic

**Q.** What about the Activity [27] of the same compound?
**A.** Tde

**Q.** What about the IC50 [28] of the same compound?
**A.** 0.49 µM

**Q.** What about the Activity [29] of the same compound?
**A.** Non-Toxic

**Q.** And the Activity [30]?
**A.** Active

**Q.** And the IC50 [31]?
**A.** 1.34 µM

**Q.** And the Activity [32]?
**A.** Active

**Q.** And the Activity [33]?
**A.** Active

**Q.** What about the Activity [34] of the same compound?
**A.** Active

**Q.** What about the Kd [35] of the same compound?
**A.** 0.23 µM

**Q.** And the Activity [36]?
**A.** Tde

**Q.** What about the Activity [37] of the same compound?
**A.** Active

**Q.** And the Activity [38]?
**A.** Active

**Q.** And the EC50 [39]?
**A.** 1.6 µM

**Q.** And the IC50 [40]?
**A.** 2.34 µM

**Q.** And the IC50 [41]?
**A.** 2.4 µM

**Q.** What about the inhibition [42] of the same compound?
**A.** Active

**Q.** And the Activity [43]?
**A.** Dose-Dependent Effect

**Q.** What about the Activity [44] of the same compound?
**A.** Active

**Q.** And the Activity [45]?
**A.** Tde

**Q.** And the Activity [46]?
**A.** Active

**Q.** What about the IC50 [47] of the same compound?
**A.** 2.1 µM

**Q.** What about the IC50 [48] of the same compound?
**A.** 1.08 µM

**Q.** And the IC50 [49]?
**A.** 0.46 µM
